The target in the test is T1, human chemokine receptor 2 isoform B (Homo sapiens, UniProt P41597).
T1 construct: host or cells: CHOK1-CCR2B-A5 (CHO-K1) cells
T1 sequence (P41597 1-360 isoform P41597-2): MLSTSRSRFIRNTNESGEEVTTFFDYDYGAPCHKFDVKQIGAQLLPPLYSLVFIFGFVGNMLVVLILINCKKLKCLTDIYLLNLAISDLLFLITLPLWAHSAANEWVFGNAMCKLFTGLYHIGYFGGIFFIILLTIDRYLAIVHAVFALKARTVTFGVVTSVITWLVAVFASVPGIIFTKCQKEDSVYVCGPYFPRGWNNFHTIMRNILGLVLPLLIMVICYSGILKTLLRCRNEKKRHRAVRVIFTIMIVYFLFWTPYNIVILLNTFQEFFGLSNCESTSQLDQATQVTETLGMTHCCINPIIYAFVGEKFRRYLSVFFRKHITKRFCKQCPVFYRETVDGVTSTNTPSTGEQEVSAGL
Description: Calcium mobilization assay. It counts as cell-based. Conditions: Ca mobilization assay for CCR2; CHOK1-CCR2B-A5 cells; antagonist activity against 20 nM MCP-1; FLIPR, Fluo-4. Background: Calcium assays in cells follow changes in intracellular calcium, usually with a dye or a luminescent sensor.

For orientation: IC50 means the concentration at which inhibition is half-maximal.

On to `O=C1CCN(c2ccc(OC(F)(F)F)cc2)CCN1[C@H](CO)CCN1CCC2(CC2)[C@H](O)C1` [Example 12, 4-[(S)-3-((S)-4-Hydroxy-6-aza-spiro[2.5]oct-6-yl)-1-hydroxymethyl-propyl]-1-(4-trifluoromethoxy-phenyl)-[1,4]diazepan-5-one], for which the IC50 stood at 120 nM.

With `CN(C)C(=O)C(CCN1CCC2(CC2)[C@H](O)C1)N1CCN(c2cccc(C(F)(F)F)c2)CCC1=O` (stereo partly drawn) [Example 17, (R,S)-4-((S)-4-Hydroxy-6-aza-spiro[2.5]oct-6-yl)-N,N-dimethyl-2-[7-oxo-4-(3-trifluoromethyl-phenyl)-[1,4]diazepan-1-yl]-butyramide], the IC50 stood at 140 nM.

In the case of `C[C@H]1C(=O)N(C[C@H](O)CCN2CCC3(CC3)[C@H](O)C2)CCN1c1ccc(Cl)c(Cl)c1` [Example 104, (S)-4-(3,4-Dichloro-phenyl)-1-[(R)-2-hydroxy-4-((S)-4-hydroxy-6-aza-spiro[2.5]oct-6-yl)-butyl]-3-methyl-piperazin-2-one], the IC50 came to 203 nM.
